According to patent publication US20100122362A1, “CELLS EXPRESSING ALPHA-SYNUCLEIN AND USES THEREFOR” (priority 2006, published 2010):

Tests used:
TS217 cells [1] = system: TS217 cells
Description: To determine the effect of overexpression of wild-type alpha-synuclein on cell viability using the stable, inducible system, TS217 cells were treated with 0.1 μg/mL tetracycline for three to six days to induce expression of alpha-synuclein. The relative viability of the cells was assessed at one day intervals (day 3, day 4, day 5, and day 6) by measuring the cellular ATP level in cell lysates using a ViaLight® Plus Bioassay kit (Cambrex, Rockland, Me.). Relative cell viability was calculated as the ratio of induced cells to control cells (cells not treated with tetracycline), as an indication of alpha-synuclein-induced cytotoxicity (see FIG. 3).
To determine whether the effect of tetracycline on cell viability was concentration-dependent, TS217 cells grown in 96 well plates were incubated with different concentrations of tetracycline for six days. Following treatment, each of the experimental cell groups were lysed and the cellular ATP measured as described above. Media with the vehicle alone (no tetracycline) served as control (FIG. 5). […]

TS217 cells [2] = experiment: Calcein AM staining of live cells; assay type: cell-based; conditions: Homo sapiens, 120 h; 0.1 μg/mL tetracycline, 5 days; read-out: number of viable cells decreased (calcein-positive cells)
Description: The cytotoxicity of alpha-synuclein overexpression in TS217 cells was also assessed using the membrane-permeable dye, calcein AM. TS217 cells were plated on glass tissue culture chamber slides coated with poly-L-lysine and cultured in the absence (Control) or presence (Induced) of 0.1 μg/mL tetracycline for 5 days to induce alpha-synuclein expression. Cells were treated with 2 μM calcein AM and the fluorescence of enzyme-activated calcein AM (in live cells) was visualized using a fluorescent microscope (Olympus, Center Valley, Pa.) fitted with a digital camera controlled by the Metamorph program (Universal Imaging, West Chester, Pa.). Calcein-positive cells were quantitated using Metamorph software (Universal Imaging, West Chester, Pa.) (FIG. 4A).

TS217 cells [3] = experiment: GM130 immunostaining of intact Golgi; assay type: cell-based, human; conditions: 0.1 μg/mL tetracycline, six day induction
Description: TS217 cells were plated on glass tissue culture chamber slides coated with poly-L-lysine and incubated for six days in the absence (Control) or presence of 0.1 μg/mL tetracycline (Induced) to induce alpha-synuclein expression. Following treatment, cells were fixed with 4% paraformaldehyde supplemented with 4% sucrose in phosphate-buffered saline, permeabilized with 0.2% triton in PBS, and stained with antibodies specific for the cis-Golgi tethering protein GM130 (FIG. 6A). The number of cells containing intact Golgi was reduced by almost 80% following the six day induction of alpha-synuclein (FIG. 6B).

Compound	Relative viability (ATP, ratio of induced to control), effect on alpha-synuclein-induced toxicity (TS217 cells [1]; 0.08, 0.15, 0.3 μM compound, with tetracycline induction for 5 days, FIG. 9)	Relative cell viability decreased (ratio of induced cells to control cells) (TS217 cells [1]; 0.1 μg/mL tetracycline, from day 3 to day 6, no other toxicity-inducing agents)	cytotoxicity at 0.1 µg/mL (TS217 cells [2])	number of cells containing intact Golgi reduced (TS217 cells [3])
CC(C)(C)n1nc(-c2ccc(Cl)cc2)c2c(N)ncnc21 [Cmp J, 1-t-Butyl-3-(4-chloro-phenyl)-1H-pyrazolo[3,4-d]pyrimidin-4-ylamine]	rescue of alpha-synuclein-induced toxicity			
CN(C)[C@@H]1C(O)=C(C(N)=O)C(=O)[C@@]2(O)C(O)=C3C(=O)c4c(O)cccc4[C@@](C)(O)[C@H]3C[C@@H]12 [tetracycline]		over 50%	~60%	~80%
